One may read the IC50 as the concentration that gives 50% inhibition. High values mean weaker potency in that assay, low ones greater potency in that assay.

IC50 data for 21 compounds are collected here from patent publication US20230086702A1, “SUBSTITUTED 2-AMINO-PYRAZOLYL-[1,2,4]TRIAZOLO[1,5A]PYRIDINE DERIVATIVES AND USE THEREOF” (The Johns Hopkins University, priority 2019, published 2023).

One assay has as its target T1, DLK (Homo sapiens, UniProt Q12852).
T1 construct: 10 nM DLK, catalytic domain, Carna Biosiences; purchased Carna Biosciences ('Carna Biosiences' [sic])
T1 sequence (Q12852 125-366 limits assumed): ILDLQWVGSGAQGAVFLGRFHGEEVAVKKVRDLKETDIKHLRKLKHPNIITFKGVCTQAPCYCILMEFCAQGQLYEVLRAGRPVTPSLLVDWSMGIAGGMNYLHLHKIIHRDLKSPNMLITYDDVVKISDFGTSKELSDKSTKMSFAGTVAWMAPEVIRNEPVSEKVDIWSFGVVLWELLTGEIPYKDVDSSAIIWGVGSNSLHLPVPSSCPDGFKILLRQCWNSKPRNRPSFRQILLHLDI
The assay is described as follows: DLK biochemical assay (TR-FRET, MKK7 phosphorylation). As to conditions: DLK catalytic domain, MKK7 substrate, 60 μM ATP. The protocol: (§1) DLK assay is a biochemical assay format designed to screen for inhibitors of DLK. Enzymatic activity of DLK is measured by monitoring phosphorylation of the physiological substrate MKK7 (MAP2K7, Dual specificity mitogen-activated protein kinase kinase 7). Phosphorylation is detected by a TR-FRET system whereby His-tagged MKK7 is labeled by a XL665-labeled anti-His antibody (FRET acceptor, emission 665 nm). DLK phosphorylates MKK7 at T275/S277, which is detected by an Eu-labeled anti-phospho-MKK7 (T275/S277) antibody (FRET donor, excitation 340 nm). Phosphorylation of MKK7 results in an increased TR-FRET signal (Ratio XL665-channel/Eu-channel) and inhibition of enzymatic activity of DLK decreases the TR-FRET signal.
All indicated concentrations are final concentrations.
(§2) Detection buffer: 25 mM Tris/HCl pH 7.5, 100 mM EDTA, 100 mM NaCl, 200 mM KF, 0.01% Tween 20, 1:500 Smart Block.

In a further assay the target is T2, LZK (Homo sapiens, UniProt O43283).
T2 construct: 10 nM LZK, catalytic domain, Carna Biosiences in assay buffer; purchased Carna Biosciences ('Carna Biosiences' [sic])
T2 sequence (O43283 168-409 limits assumed): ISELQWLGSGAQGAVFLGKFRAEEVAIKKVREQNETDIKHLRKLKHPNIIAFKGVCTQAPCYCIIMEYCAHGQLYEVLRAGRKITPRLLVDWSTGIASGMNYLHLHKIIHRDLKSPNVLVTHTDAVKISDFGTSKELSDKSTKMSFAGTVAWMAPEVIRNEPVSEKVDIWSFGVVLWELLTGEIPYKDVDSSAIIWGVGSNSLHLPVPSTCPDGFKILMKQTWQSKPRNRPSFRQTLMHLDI
The assay is described as follows: LZK biochemical assay (TR-FRET, MKK7 phosphorylation). Conditions: LZK catalytic domain, MKK7 substrate, 15 μM ATP. As to the method:
as §1, with “LZK” for “DLK”, “LZK.” for “DLK.”, “T275/S277” for “T275/S277,”
All indicated concentrations final concentrations.
as §2
(Time-resolved FRET reads energy transfer from a long-lived donor to a nearby acceptor.)

On to `CC[C@H](C)NC(=O)c1cc(-c2cnn(C3CCN(CC4COC4)CC3)c2)cn2nc(N)nc12` (single isomer, unassigned) [Example I-9], for which the half-maximal inhibitory concentration (IC50) against DLK came to 80 nM; against LZK, 6.9 nM.
`CC[C@H](C)NC(=O)c1cc(-c2cnn(Cc3cccc4cn[nH]c34)c2)cn2nc(N)nc12` (single isomer, unassigned) [Example I-23]: the IC50 at DLK came to 2.7 nM; on LZK, 56 nM.
Take `CC(C)C(c1ccc(F)cc1)n1cc(-c2cc(C(=O)N[C@@H](C)CO)c3nc(N)nn3c2)cn1` (single isomer, unassigned) [Example I-161]: the IC50 at DLK stood at 51 nM; against LZK, 540 nM.
Take `C[C@@H](CO)NC(=O)c1cc(-c2cnn(C(c3ccc(C(F)(F)F)nc3)C3CCOCC3)c2)cn2nc(N)nc12` (mixture of isomers) [Example I-154, 2-Amino-N-[(25)-1-hydroxypropan-2-yl]-6-(1-{tetrahydro-2H-pyran-4-yl[6-(trifluoromethyl)pyridin-3-yl]methyl}-1H-pyrazol-4-yl)[1,2,4]triazolo[1,5-a]pyridine-8-carboxamide]: the half-inhibitory concentration (IC50) against DLK was 1.1 nM; at LZK, 4.6 nM.
For `CCC(c1ccc(C(F)F)nc1)n1cc(-c2cc(C(=O)N[C@@H](C)CC)c3nc(N)nn3c2)cn1` (mixture of isomers) [Example I-64, 2-Amino-N-[(2S)-butan-2-yl]-6-(1-{1-[6-(difluoromethyl)pyridin-3-yl]propyl}-1H-pyrazol-4-yl)[1,2,4]triazolo[1,5-a]pyridine-8-carboxamide], in that order: 1.7 nM and 7 nM.
For the compound `CCC(c1ccc(C(F)(F)F)nc1)n1cc(-c2cc(C(=O)N[C@H]3CCOC3)n3nc(N)nc3c2)cn1` (single isomer, unassigned) [Example I-179], the IC50 is 1.8 nM at DLK and 7.9 nM at LZK.
For `CCC(c1ccc(Cl)s1)n1cc(-c2cc(C(=O)N[C@@H](C)CC)c3nc(N)nn3c2)cn1` (single isomer, unassigned) [Example I-130] the same measures were 53 nM and 100 nM.
For “tert-Butyl 4-{(4-{2-amino-8-[(2S)-butan-2-ylcarbamoyl][1,2,4]triazolo[1,5-a]pyridin-6-yl}-1H-pyrazol-1-yl)[6-(trifluoromethyl)pyridin-3-yl]methyl}piperidine-1-carboxylate [Example I-80]” the same measures were 45 nM and 40 nM.
For `CC[C@H](C)NC(=O)c1cc(-c2cnn(C(CC(F)(F)F)c3ccccc3)c2)cn2nc(N)nc12` (mixture of isomers) [Example I-37, 2-Amino-N-[(2S)-butan-2-yl]-6-{1-[3,3,3-trifluoro-1-phenylpropyl]-1H-pyrazol-4-yl}[1,2,4]triazolo[1,5-a]pyridine-8-carboxamide], in that order: 3.6 nM and 240 nM.
On to `CC(CF)NC(=O)c1cc(-c2cnn(C(c3ccccc3)C(C)C)c2)cn2nc(N)nc12` (single isomer, unassigned) [Example I-139, 2-Amino-N-(1-fluoropropan-2-yl)-6-{1-[2-methyl-1-phenylpropyl]-1H-pyrazol-4-yl}[1,2,4]triazolo[1,5-a]pyridine-8-carboxamide], for which the IC50 worked out at 1.7 nM on DLK and 64 nM against LZK.
As for `CCC(c1ccc(C(F)(F)F)nc1)n1cc(-c2cc(C(=O)NC(C)(C)CO)c3nc(N)nn3c2)cn1` (racemic) [Example I-163, 2-Amino-N-(1-hydroxy-2-methylpropan-2-yl)-6-(1-{1-[6-(trifluoromethyl)pyridin-3-yl]propyl}-1H-pyrazol-4-yl)[1,2,4]triazolo[1,5-a]pyridine-8-carboxamide], the IC50 on DLK worked out at 7.6 nM; against LZK, 30 nM.
For `CC[C@H](C)NC(=O)c1cc(-c2cnn(C(c3ccc(C(F)F)nc3)C3CC3)c2)cc2nc(N)nn12` (single isomer, unassigned) [Example I-100], in that order: 2.8 nM and 4.3 nM.
For `CCC(c1ccc(C(F)(F)F)nc1)n1cc(-c2cc(C(=O)N[C@@H](C)CO)c3nc(N)nn3c2)cn1` (single isomer, unassigned) [Example I-153, 2-Amino-N-[(25)-1-hydroxypropan-2-yl]-6-(1-{1-[6-(trifluoromethyl)pyridin-3-yl]propyl}-1H-pyrazol-4-yl)[1,2,4]triazolo[1,5-a]pyridine-8-carboxamide], in that order: 6.2 nM and 29 nM.
Regarding `CC(C)C(c1ccc(C(F)(F)F)nc1)n1cc(-c2cc(C(=O)N[C@H]3CCOC3)n3nc(N)nc3c2)cn1` (mixture of isomers) [Example I-180, 2-Amino-7-(1-{2-methyl-1-[6-(trifluoromethyl)pyridin-3-yl]propyl}-1H-pyrazol-4-yl)-N-[(3S)-tetrahydrofuran-3-yl][1,2,4]triazolo[1,5-a]pyridine-5-carboxamide], the half-inhibitory concentration (IC50) against DLK stood at 1.6 nM; against LZK, 6.1 nM.
For the compound `Nc1nc2c(C(=O)NC3CCC3)cc(-c3cnn(Cc4ccc(F)cc4)c3)cn2n1` [Example I-132, 2-Amino-N-cyclobutyl-6-{1-[(4-fluorophenyl)methyl]-1H-pyrazol-4-yl}[1,2,4]triazolo[1,5-a]pyridine-8-carboxamide], the IC50 on DLK is 85 nM; against LZK it was 240 nM.
Turning to `CCC(c1ccc(OCC(F)(F)F)nc1)n1cc(-c2cc(C(=O)N[C@H]3CCOC3)n3nc(N)nc3c2)cn1` (mixture of isomers) [Example I-186], the concentration for half-maximal inhibition (IC50) on DLK worked out at 6.2 nM; on LZK, 16 nM.
As for `C[C@@H](CO)NC(=O)c1cc(-c2cnn([C@H](c3ccc(C(F)(F)F)nc3)C3CCOCC3)c2)cn2nc(N)nc12` (single isomer, unassigned) [Example I-155, 2-Amino-N-[(25)-1-hydroxypropan-2-yl]-6-(1-{tetrahydro-2H-pyran-4-yl[6-(trifluoromethyl)pyridin-3-yl]methyl}-1H-pyrazol-4-yl)[1,2,4]triazolo[1,5-a]pyridine-8-carboxamide], the IC50 against DLK was determined as 0.7 nM; at LZK it was 3.9 nM.
In the case of `CC[C@H](C)NC(=O)c1cc(-c2cnn([C@H](c3ccccc3)C(C)C)c2)cc2nc(N)nn12` (single isomer, unassigned) [Example I-26], the values for the IC50 on DLK and against LZK were 1.1 nM and 18 nM, respectively.
As for `CC[C@H](C)NC(=O)c1cc(-c2cnn(C(c3ccccc3)C(C)(C)C)c2)cn2nc(N)nc12` (single isomer, unassigned) [Example I-36], the IC50 on DLK amounted to 25 nM; at LZK, 180 nM.
`CC(C)(CO)NC(=O)c1cc(-c2cnn(C(c3ccc(C(F)(F)F)nc3)C3CCOCC3)c2)cn2nc(N)nc12` (single isomer, unassigned) [Example I-168, 2-Amino-N-(1-hydroxy-2-methylpropan-2-yl)-6-(1-{tetrahydro-2H-pyran-4-yl[6-(trifluoromethyl)pyridin-3-yl]methyl}-1H-pyrazol-4-yl)[1,2,4]triazolo[1,5-a]pyridine-8-carboxamide]: the IC50 against DLK stood at 1.5 nM; at LZK it was 8.9 nM.
Turning to `CC[C@H](C)NC(=O)c1cc(-c2cnn(C(c3ccc(C(F)F)nc3)C(C)C)c2)cn2nc(N)nc12` (single isomer, unassigned) [Example I-69], the IC50 was 1 nM against DLK and 3.9 nM against LZK.
